# Assay results: the NIST ThermoML archive (doi:10.1021/je800382b)
# Values joined by “and” are separate entries in the source; they are usually repeats but may differ in a detail not shown here. Equal values may be shown once. ± gives the expanded uncertainty stated by the source.
# What was measured:
# [1] = DTA
# [2] = Molar enthalpy of transition or fusion; settings: DSC
# [3] = molar heat capacity at constant pressure; settings: 101.33 kPa, Small sample (50 mg) DSC
smiles,measurement,setting,value
"c1ccc2cc3cc4ccccc4cc3cc2c1 [2,3-benzanthracene]",Normal melting temperature,[1]; Crystal 1,353.1 ± 0.4 °C
same,Triple point temperature,[1]; Crystal 2,581.9 ± 1.1 K
same,Triple point temperature,[1]; Crystal 3,398.1 ± 2.4 K
same,Molar enthalpy of transition or fusion,[2]; Crystal 1,8.8 ± 0.263 kcal/mol
same,Molar enthalpy of transition or fusion,[2]; Crystal 2,0.287 ± 0.0478 kcal/mol
same,Molar enthalpy of transition or fusion,[2]; Crystal 3,0.0263 ± 0.0311 kcal/mol
same,molar heat capacity at constant pressure,"[3]; 258.1 K, Crystal 3",218.8 ± 5.4 J/K/mol and 220.8 ± 5.4 J/K/mol and 219.3 ± 5.4 J/K/mol
same,molar heat capacity at constant pressure,"[3]; 268.3 K, Crystal 3",230.5 ± 5.6 J/K/mol [middle of 4 runs]
same,molar heat capacity at constant pressure,"[3]; 278.5 K, Crystal 3",240.6 ± 5.9 J/K/mol [middle of 4 runs]
same,molar heat capacity at constant pressure,"[3]; 288.7 K, Crystal 3",250.4 ± 6.1 J/K/mol [middle of 4 runs]
same,molar heat capacity at constant pressure,"[3]; 298.9 K, Crystal 3",260.8 ± 6.4 J/K/mol [middle of 4 runs]
same,molar heat capacity at constant pressure,"[3]; 299.3 K, Crystal 3",260.9 ± 11 J/K/mol
same,molar heat capacity at constant pressure,"[3]; 309.1 K, Crystal 3",269.7 ± 6.6 J/K/mol [middle of 4 runs]
same,molar heat capacity at constant pressure,"[3]; 309.3 K, Crystal 3",270.1 ± 12 J/K/mol
same,molar heat capacity at constant pressure,"[3]; 319.2 K, Crystal 3",280.1 ± 12 J/K/mol
same,molar heat capacity at constant pressure,"[3]; 319.4 K, Crystal 3",278 ± 6.8 J/K/mol [middle of 4 runs]
same,molar heat capacity at constant pressure,"[3]; 329.1 K, Crystal 3",286.4 ± 12 J/K/mol
same,molar heat capacity at constant pressure,"[3]; 329.6 K, Crystal 3",287.1 ± 7 J/K/mol [middle of 4 runs]
same,molar heat capacity at constant pressure,"[3]; 339.1 K, Crystal 3",295.8 ± 12 J/K/mol
same,molar heat capacity at constant pressure,"[3]; 339.8 K, Crystal 3",296.6 ± 7.3 J/K/mol and 295.5 ± 7.2 J/K/mol and 295.4 ± 7.2 J/K/mol
same,molar heat capacity at constant pressure,"[3]; 349 K, Crystal 3",307.1 ± 13 J/K/mol and 303.7 ± 13 J/K/mol
same,molar heat capacity at constant pressure,"[3]; 350 K, Crystal 3",304.2 ± 7.5 J/K/mol [middle of 4 runs]
same,molar heat capacity at constant pressure,"[3]; 359 K, Crystal 3",312.4 ± 13 J/K/mol and 314.7 ± 13 J/K/mol
same,molar heat capacity at constant pressure,"[3]; 368.9 K, Crystal 3",324.2 ± 14 J/K/mol and 319.7 ± 14 J/K/mol
same,molar heat capacity at constant pressure,"[3]; 378.9 K, Crystal 3",330.2 ± 14 J/K/mol and 332.5 ± 14 J/K/mol
same,molar heat capacity at constant pressure,"[3]; 388.8 K, Crystal 3",341.4 ± 14 J/K/mol
same,molar heat capacity at constant pressure,"[3]; 408.7 K, Crystal 2",357.6 ± 15 J/K/mol
same,molar heat capacity at constant pressure,"[3]; 418.6 K, Crystal 2",364.9 ± 16 J/K/mol and 365.7 ± 16 J/K/mol
same,molar heat capacity at constant pressure,"[3]; 428.6 K, Crystal 2",378.1 ± 16 J/K/mol
same,molar heat capacity at constant pressure,"[3]; 438.5 K, Crystal 2",381.3 ± 16 J/K/mol and 383.5 ± 16 J/K/mol
same,molar heat capacity at constant pressure,"[3]; 448.5 K, Crystal 2",391.9 ± 17 J/K/mol and 392.5 ± 17 J/K/mol
same,molar heat capacity at constant pressure,"[3]; 458.4 K, Crystal 2",403 ± 17 J/K/mol
same,molar heat capacity at constant pressure,"[3]; 468.4 K, Crystal 2",409.4 ± 17 J/K/mol and 411.7 ± 18 J/K/mol
same,molar heat capacity at constant pressure,"[3]; 478.3 K, Crystal 2",417.9 ± 18 J/K/mol
same,molar heat capacity at constant pressure,"[3]; 488.2 K, Crystal 2",426.2 ± 18 J/K/mol
same,molar heat capacity at constant pressure,"[3]; 498.2 K, Crystal 2",438.5 ± 19 J/K/mol
same,molar heat capacity at constant pressure,"[3]; 508.1 K, Crystal 2",444.3 ± 19 J/K/mol
same,molar heat capacity at constant pressure,"[3]; 518.1 K, Crystal 2",454.5 ± 19 J/K/mol
same,molar heat capacity at constant pressure,"[3]; 528 K, Crystal 2",459.9 ± 20 J/K/mol
same,molar heat capacity at constant pressure,"[3]; 538 K, Crystal 2",474.1 ± 20 J/K/mol
same,molar heat capacity at constant pressure,"[3]; 547.9 K, Crystal 2",479.3 ± 20 J/K/mol
same,molar heat capacity at constant pressure,"[3]; 557.8 K, Crystal 2",493.4 ± 21 J/K/mol
same,molar heat capacity at constant pressure,"[3]; 647.32 K, Liquid",505.18 ± 31 J/K/mol
same,molar heat capacity at constant pressure,"[3]; 657.27 K, Liquid",509.31 ± 31 J/K/mol
same,molar heat capacity at constant pressure,"[3]; 667.21 K, Liquid",513.42 ± 32 J/K/mol
"c1ccc2cc3cc4cc5ccccc5cc4cc3cc2c1 [2,3:6,7-dibenzanthracene]",molar heat capacity at constant pressure,"[3]; 258.1 K, Crystal",264.5 ± 6.5 J/K/mol and 265.5 ± 6.5 J/K/mol and 267.2 ± 6.5 J/K/mol
same,molar heat capacity at constant pressure,"[3]; 268.3 K, Crystal",275.7 ± 6.8 J/K/mol and 277.2 ± 6.8 J/K/mol and 277.1 ± 6.8 J/K/mol
same,molar heat capacity at constant pressure,"[3]; 278.5 K, Crystal",288.9 ± 7.1 J/K/mol and 287.1 ± 7 J/K/mol and 287.5 ± 7 J/K/mol
same,molar heat capacity at constant pressure,"[3]; 288.7 K, Crystal",299.7 ± 7.3 J/K/mol and 299.2 ± 7.3 J/K/mol
same,molar heat capacity at constant pressure,"[3]; 298.9 K, Crystal",311.6 ± 7.6 J/K/mol and 311.5 ± 7.6 J/K/mol and 311 ± 7.6 J/K/mol
same,molar heat capacity at constant pressure,"[3]; 309.1 K, Crystal",322.1 ± 7.9 J/K/mol and 322.4 ± 7.9 J/K/mol and 322.3 ± 7.9 J/K/mol
same,molar heat capacity at constant pressure,"[3]; 309.2 K, Crystal",324.4 ± 14 J/K/mol
same,molar heat capacity at constant pressure,"[3]; 319.2 K, Crystal",338.9 ± 14 J/K/mol
same,molar heat capacity at constant pressure,"[3]; 319.4 K, Crystal",332.5 ± 8.1 J/K/mol and 333.2 ± 8.2 J/K/mol and 332.1 ± 8.1 J/K/mol
same,molar heat capacity at constant pressure,"[3]; 329.6 K, Crystal",345.7 ± 8.5 J/K/mol and 346.5 ± 8.5 J/K/mol and 344.5 ± 8.4 J/K/mol
same,molar heat capacity at constant pressure,"[3]; 339.8 K, Crystal",356.2 ± 8.7 J/K/mol and 354.9 ± 8.7 J/K/mol and 355.1 ± 8.7 J/K/mol
same,molar heat capacity at constant pressure,"[3]; 350 K, Crystal",365.5 ± 9 J/K/mol and 367.2 ± 9 J/K/mol and 366 ± 9 J/K/mol
same,molar heat capacity at constant pressure,"[3]; 359 K, Crystal",384.6 ± 16 J/K/mol
same,molar heat capacity at constant pressure,"[3]; 368.9 K, Crystal",394.9 ± 17 J/K/mol
same,molar heat capacity at constant pressure,"[3]; 378.9 K, Crystal",406 ± 17 J/K/mol
same,molar heat capacity at constant pressure,"[3]; 388.8 K, Crystal",411.4 ± 18 J/K/mol
same,molar heat capacity at constant pressure,"[3]; 398.7 K, Crystal",427.1 ± 18 J/K/mol
same,molar heat capacity at constant pressure,"[3]; 408.7 K, Crystal",425.7 ± 18 J/K/mol
same,molar heat capacity at constant pressure,"[3]; 418.6 K, Crystal",436.8 ± 18 J/K/mol
same,molar heat capacity at constant pressure,"[3]; 428.6 K, Crystal",450.1 ± 19 J/K/mol
same,molar heat capacity at constant pressure,"[3]; 438.5 K, Crystal",457.6 ± 19 J/K/mol
same,molar heat capacity at constant pressure,"[3]; 448.5 K, Crystal",466.7 ± 20 J/K/mol
same,molar heat capacity at constant pressure,"[3]; 458.4 K, Crystal",476.5 ± 20 J/K/mol
same,molar heat capacity at constant pressure,"[3]; 468.3 K, Crystal",481.6 ± 20 J/K/mol
same,molar heat capacity at constant pressure,"[3]; 478.3 K, Crystal",497.2 ± 21 J/K/mol
same,molar heat capacity at constant pressure,"[3]; 488.2 K, Crystal",501.9 ± 21 J/K/mol
same,molar heat capacity at constant pressure,"[3]; 498.2 K, Crystal",509.1 ± 22 J/K/mol
same,molar heat capacity at constant pressure,"[3]; 508.1 K, Crystal",518.2 ± 22 J/K/mol
same,molar heat capacity at constant pressure,"[3]; 518.1 K, Crystal",527.8 ± 22 J/K/mol
same,molar heat capacity at constant pressure,"[3]; 528 K, Crystal",529.1 ± 22 J/K/mol
same,molar heat capacity at constant pressure,"[3]; 537.9 K, Crystal",549.1 ± 23 J/K/mol
same,molar heat capacity at constant pressure,"[3]; 547.9 K, Crystal",552.3 ± 23 J/K/mol
same,molar heat capacity at constant pressure,"[3]; 557.8 K, Crystal",558.6 ± 24 J/K/mol
same,molar heat capacity at constant pressure,"[3]; 567.8 K, Crystal",566.7 ± 24 J/K/mol
same,molar heat capacity at constant pressure,"[3]; 577.7 K, Crystal",575.7 ± 24 J/K/mol
same,molar heat capacity at constant pressure,"[3]; 587.7 K, Crystal",578.8 ± 25 J/K/mol
same,molar heat capacity at constant pressure,"[3]; 597.6 K, Crystal",592.5 ± 25 J/K/mol
